# Patent US10966978B2, “Dose and regimen for HDM2-p53 interaction inhibitors” (Novartis AG, priority 2016, dated 2021)
# Like-named read-outs stand apart in the source and are kept apart here.
# System: patients with advanced TP53 wild-type (WT) leukemias
# From the text: Patients with Ph+ ALL who show early markers of relapse in MRD surveillance can be considered for inclusion as long as other therapies such as TKIs are exhausted or cannot be given. • Tumor of the patient is TP53 wt characterized by, at a minimum, no mutations in exons 5, 6, 7 and 8, and the p53 status was obtained from a bone-marrow sample, collected no longer than 3 months before signing the main ICF. Safety and Tolerability Profile of Regimen 1B in Hematological Tumors
smiles,measurement,setting,value
"COc1ncc(-c2nc3c(n2C(C)C)[C@H](c2ccc(Cl)cc2)N(c2cc(Cl)cn(C)c2=O)C3=O)c(OC)n1 [HDM201, (S)-5-(5-Chloro-1-methyl-2-oxo-1,2-dihydro-pyridin-3-yl)-6-(4-chloro-phenyl)-2-(2,4-dimethoxy-pyrimidin-5-yl)-1-isopropyl-5,6-dihydro-1H-pyrrolo[3,4-d]imidazol-4-one]",AE: Nausea,"Regimen 2C N = 8, All Grades",3 (37.5) n (%)
same,AE: Neutropenia/Neutrophil Count Decreased,"Regimen 2C N = 8, All Grades",4 (50.0) n (%)
same,AE: Oedema,"Regimen 2C N = 8, All Grades",0 n (%)
same,AE: Oedema Peripheral,"Regimen 2C N = 8, All Grades",0 n (%)
same,AE: Oral Disorder,"Regimen 2C N = 8, All Grades",0 n (%)
same,AE: Pain In Extremity,"Regimen 2C N = 8, All Grades",0 n (%)
same,AE: Pancytopenia,"Regimen 2C N = 8, All Grades",1 (12.5) n (%)
same,AE: Pneumonia,"Regimen 2C N = 8, All Grades",0 n (%)
same,AE: Pollakiuria,"Regimen 2C N = 8, All Grades",0 n (%)
same,AE: Pyrexia,"Regimen 2C N = 8, All Grades",0 n (%)
same,AE: Rash,"Regimen 2C N = 8, All Grades",0 n (%)
same,AE: Rash Erythematous,"Regimen 2C N = 8, All Grades",0 n (%)
same,AE: Rash Papular,"Regimen 2C N = 8, All Grades",0 n (%)
same,AE: Rectal Haemorrhage,"Regimen 2C N = 8, All Grades",0 n (%)
same,AE: Renal Failure,"Regimen 2C N = 8, All Grades",1 (12.5) n (%)
same,AE: Skin Exfoliation,"Regimen 2C N = 8, All Grades",0 n (%)
same,AE: Stomatitis,"Regimen 2C N = 8, All Grades",1 (12.5) n (%)
same,AE: Subarachnoid Haemorrhage,"Regimen 2C N = 8, All Grades",0 n (%)
same,AE: Thrombocytopenia/Platelet Count Decreased,"Regimen 2C N = 8, All Grades",5 (62.5) n (%)
same,AE: Total,"Regimen 2C N = 8, All Grades",8 (100) n (%)
same,AE: Tumour Lysis Syndrome,"Regimen 2C N = 8, All Grades",1 (12.5) n (%)
same,AE: Vomiting,"Regimen 2C N = 8, All Grades",1 (12.5) n (%)
same,AE: Weight Decreased,"Regimen 2C N = 8, All Grades",0 n (%)
same,AE: White Blood Cell Count Decreased,"Regimen 2C N = 8, All Grades",2 (25.0) n (%)
same,AE: Abdominal Discomfort,"Regimen 2C N = 8, Grade 3/4",0 n (%)
same,AE: Abdominal Pain,"Regimen 2C N = 8, Grade 3/4",0 n (%)
same,AE: Abdominal Pain Upper,"Regimen 2C N = 8, Grade 3/4",0 n (%)
same,AE: Amylase Increased,"Regimen 2C N = 8, Grade 3/4",0 n (%)
same,AE: Anaemia,"Regimen 2C N = 8, Grade 3/4",3 (37.5) n (%)
same,AE: Arthralgia,"Regimen 2C N = 8, Grade 3/4",0 n (%)
same,AE: Asthenia,"Regimen 2C N = 8, Grade 3/4",0 n (%)
same,AE: Atrial Fibrillation,"Regimen 2C N = 8, Grade 3/4",0 n (%)
same,AE: Atypical Pneumonia,"Regimen 2C N = 8, Grade 3/4",0 n (%)
same,AE: Balanitis Candida,"Regimen 2C N = 8, Grade 3/4",0 n (%)
same,AE: Blood Alkaline Phosphatase Increased,"Regimen 2C N = 8, Grade 3/4",0 n (%)
same,AE: Blood Bilirubin Increased,"Regimen 2C N = 8, Grade 3/4",0 n (%)
same,AE: Blood Creatinine Increased,"Regimen 2C N = 8, Grade 3/4",1 (12.5) n (%)
same,AE: Blood Phosphorus Increased,"Regimen 2C N = 8, Grade 3/4",0 n (%)
same,AE: Blood Uric Acid Increased,"Regimen 2C N = 8, Grade 3/4",0 n (%)
same,AE: Bone Marrow Failure,"Regimen 2C N = 8, Grade 3/4",0 n (%)
same,AE: C-Reactive Protein Increased,"Regimen 2C N = 8, Grade 3/4",0 n (%)
same,AE: Cardiac Failure,"Regimen 2C N = 8, Grade 3/4",0 n (%)
same,AE: Cellulitis,"Regimen 2C N = 8, Grade 3/4",0 n (%)
same,AE: Chronic Graft Versus Host Disease,"Regimen 2C N = 8, Grade 3/4",0 n (%)
same,AE: Conjunctival Haemorrhage,"Regimen 2C N = 8, Grade 3/4",0 n (%)
same,AE: Constipation,"Regimen 2C N = 8, Grade 3/4",0 n (%)
same,AE: Cough,"Regimen 2C N = 8, Grade 3/4",0 n (%)
same,AE: Cystitis Viral,"Regimen 2C N = 8, Grade 3/4",0 n (%)
same,AE: Cytomegalovirus Infection,"Regimen 2C N = 8, Grade 3/4",0 n (%)
same,AE: Decreased Appetite,"Regimen 2C N = 8, Grade 3/4",0 n (%)
same,AE: Diarrhoea,"Regimen 2C N = 8, Grade 3/4",0 n (%)
same,AE: Dyspepsia,"Regimen 2C N = 8, Grade 3/4",0 n (%)
same,AE: Dyspnoea,"Regimen 2C N = 8, Grade 3/4",0 n (%)
same,AE: Epistaxis,"Regimen 2C N = 8, Grade 3/4",0 n (%)
same,AE: Fatigue,"Regimen 2C N = 8, Grade 3/4",0 n (%)
same,AE: Febrile Neutropenia,"Regimen 2C N = 8, Grade 3/4",3 (37.5) n (%)
same,AE: Gamma-Glutamyltransferase Increased,"Regimen 2C N = 8, Grade 3/4",0 n (%)
same,AE: General Physical Health Deterioration,"Regimen 2C N = 8, Grade 3/4",0 n (%)
same,AE: Gingival Bleeding,"Regimen 2C N = 8, Grade 3/4",0 n (%)
same,AE: Graft Versus Host Disease,"Regimen 2C N = 8, Grade 3/4",0 n (%)
same,AE: Haemoglobin Decreased,"Regimen 2C N = 8, Grade 3/4",0 n (%)
same,AE: Headache,"Regimen 2C N = 8, Grade 3/4",0 n (%)
same,AE: Hyperbilirubinaemia,"Regimen 2C N = 8, Grade 3/4",0 n (%)
same,AE: Hyperglycaemia,"Regimen 2C N = 8, Grade 3/4",0 n (%)
same,AE: Hyperkalaemia,"Regimen 2C N = 8, Grade 3/4",0 n (%)
same,AE: Hyperphosphataemia,"Regimen 2C N = 8, Grade 3/4",0 n (%)
same,AE: Hypoalbuminaemia,"Regimen 2C N = 8, Grade 3/4",0 n (%)
same,AE: Hypocalcaemia,"Regimen 2C N = 8, Grade 3/4",0 n (%)
same,AE: Hypokalaemia,"Regimen 2C N = 8, Grade 3/4",0 n (%)
same,AE: Hypomagnesaemia,"Regimen 2C N = 8, Grade 3/4",0 n (%)
same,AE: Hyponatraemia,"Regimen 2C N = 8, Grade 3/4",0 n (%)
same,AE: Hypophosphataemia,"Regimen 2C N = 8, Grade 3/4",0 n (%)
same,AE: Hypotension,"Regimen 2C N = 8, Grade 3/4",0 n (%)
same,AE: Infection,"Regimen 2C N = 8, Grade 3/4",0 n (%)
same,AE: Infective Glossitis,"Regimen 2C N = 8, Grade 3/4",0 n (%)
same,AE: Iron Overload,"Regimen 2C N = 8, Grade 3/4",0 n (%)
same,AE: Leukopenia,"Regimen 2C N = 8, Grade 3/4",0 n (%)
same,AE: Lip Oedema,"Regimen 2C N = 8, Grade 3/4",0 n (%)
same,AE: Lipase Increased,"Regimen 2C N = 8, Grade 3/4",0 n (%)
same,AE: Macular Oedema,"Regimen 2C N = 8, Grade 3/4",0 n (%)
same,AE: Malaise,"Regimen 2C N = 8, Grade 3/4",0 n (%)
same,AE: Mouth Haemorrhage,"Regimen 2C N = 8, Grade 3/4",0 n (%)
same,AE: Nausea,"Regimen 2C N = 8, Grade 3/4",0 n (%)
same,AE: Neutropenia/Neutrophil Count Decreased,"Regimen 2C N = 8, Grade 3/4",3 (37.5) n (%)
same,AE: Oedema,"Regimen 2C N = 8, Grade 3/4",0 n (%)
same,AE: Oedema Peripheral,"Regimen 2C N = 8, Grade 3/4",0 n (%)
same,AE: Oral Disorder,"Regimen 2C N = 8, Grade 3/4",0 n (%)
same,AE: Pain In Extremity,"Regimen 2C N = 8, Grade 3/4",0 n (%)
same,AE: Pancytopenia,"Regimen 2C N = 8, Grade 3/4",1 (12.5) n (%)
same,AE: Pneumonia,"Regimen 2C N = 8, Grade 3/4",0 n (%)
same,AE: Pollakiuria,"Regimen 2C N = 8, Grade 3/4",0 n (%)
same,AE: Pyrexia,"Regimen 2C N = 8, Grade 3/4",0 n (%)
same,AE: Rash,"Regimen 2C N = 8, Grade 3/4",0 n (%)
same,AE: Rash Erythematous,"Regimen 2C N = 8, Grade 3/4",0 n (%)
same,AE: Rash Papular,"Regimen 2C N = 8, Grade 3/4",0 n (%)
same,AE: Rectal Haemorrhage,"Regimen 2C N = 8, Grade 3/4",0 n (%)
same,AE: Renal Failure,"Regimen 2C N = 8, Grade 3/4",1 (12.5) n (%)
same,AE: Skin Exfoliation,"Regimen 2C N = 8, Grade 3/4",0 n (%)
same,AE: Stomatitis,"Regimen 2C N = 8, Grade 3/4",0 n (%)
same,AE: Subarachnoid Haemorrhage,"Regimen 2C N = 8, Grade 3/4",0 n (%)
same,AE: Thrombocytopenia/Platelet Count Decreased,"Regimen 2C N = 8, Grade 3/4",5 (62.5) n (%)
same,AE: Total,"Regimen 2C N = 8, Grade 3/4",5 (62.5) n (%)
same,AE: Tumour Lysis Syndrome,"Regimen 2C N = 8, Grade 3/4",1 (12.5) n (%)
same,AE: Vomiting,"Regimen 2C N = 8, Grade 3/4",0 n (%)
same,AE: Weight Decreased,"Regimen 2C N = 8, Grade 3/4",0 n (%)
same,AE: White Blood Cell Count Decreased,"Regimen 2C N = 8, Grade 3/4",2 (25.0) n (%)
